Results reported in publication PMC4257560, “Synthesis and Functional Characterization of Substituted Isoquinolinones as MT2-Selective Melatoninergic Ligands” (PLoS ONE, 2014).
Where two headings read alike, the source gives them in different places. Marks after values point to notes of the source that are not given here.

Columns and labels:
[1] = molecular target: T1, MT2 (Homo sapiens, UniProt P49286)
T1 sequence (P49286 1-362): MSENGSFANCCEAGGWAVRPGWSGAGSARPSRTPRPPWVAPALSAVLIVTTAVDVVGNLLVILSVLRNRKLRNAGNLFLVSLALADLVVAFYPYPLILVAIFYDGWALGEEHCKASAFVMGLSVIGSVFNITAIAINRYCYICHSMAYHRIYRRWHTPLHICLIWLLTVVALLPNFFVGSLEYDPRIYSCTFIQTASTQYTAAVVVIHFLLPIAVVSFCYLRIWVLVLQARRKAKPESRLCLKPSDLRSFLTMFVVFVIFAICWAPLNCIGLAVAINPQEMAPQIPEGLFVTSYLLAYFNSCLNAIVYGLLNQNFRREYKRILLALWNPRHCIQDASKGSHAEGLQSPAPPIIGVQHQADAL
Experimental: (§8) Competitive receptor binding characteristics of melatonin and the 15 tested compounds towards human MT1 and MT2 stably expressed in Chinese hamster ovary (CHO) cells were determined using intact cell preparation pre-incubated with 1 nM [^3H]melatonin.
(§9) Individual melatonin receptor subtype (either MT1 or MT2) was stably co-expressed with a G protein chimera 16z25 in Chinese hamster ovary (CHO) cells, hereafter denoted as CHO-hMT1 and CHO-hMT2, respectively. […] Single cell-derived colonies of the stable lines with sufficiently high receptor density and robust responses in the fluorometric assay (as described below) were isolated from the pool of transfected cell. Usage of these clonal lines was limited to 15 passages to prevent degradation of signal detection.
(§10) Competitive binding assays were performed as described [26]. Cells were suspended in binding buffer (50 mM Tris, 2 mM MgCl2, 1 mM EGTA, pH 7.4) in the density of 1.5×10^5 cell/ml. 1 nM [^3H]melatonin and increasing concentrations of a tested compound was included. Cells were incubated at 4°C for 60 min with intermittent agitation and the reaction was stopped by rapid filtration through GF/C filters pre-soaked in 10 mM Tris, pH 7.4 and washed with 1 ml of prechilled binding buffer. Retained radioactivity was measured with Wallac 1450 Microbeta Jet scintillation counter. Competition curves were drawn as one-site competition nonlinear regression model using GraphPad Prism 3.03 to the data which were means ± SEM of 3–4 independent experiments performed in duplicates. In every assay, melatonin was included as standard reference with highly reproducible Ki values, which were calculated using the Cheng-Prusoff equation.

[2] = molecular target: T2, MT1 (Homo sapiens, UniProt P48039); test: biochemical; settings: for Emax: read-out: MT1 %Resp±SEM (percentage of melatonin-mediated displacement of radioligand binding)
Experimental: as §8, §9, §10

[3] = molecular target: T1, MT2; test: biochemical; settings: for Ki: MT2 Ki, calculated from mean pIC50 (Cheng-Prusoff), 1 nM [3H]melatonin, intact CHO cells; for Emax: read-out: MT2 %Resp±SEM (percentage of melatonin-mediated displacement of radioligand binding)
Experimental: as §8, §9, §10

[4] = molecular target: T2, MT1; test: Intracellular Ca2+ mobilization (FLIPR) in MT1-CHO cells co-expressing 16z25; type: cell-based; set-up: expressed in transfected cells; settings: for MT1 %Resp ±SEM, Ca2+ signal: percentage of melatonin (MT)-mediated stimulation of Ca2+ signal
Experimental: (§1) Tested compounds in different concentrations were diluted in assay buffer in 5× of the final desired concentrations in a V-bottomed microplate, and both the cell and compound plates were put into the fluorometric imaging plate reader FLIPR^TETRA (Molecular Devices, Sunnyvale, CA). […] The peak of the time course of fluorescence changes was expressed in relative fluorescence units (RFU). Dose response curves were constructed by non-linear regression using GraphPad Prism 3.

[5] = molecular target: T1, MT2; test: Intracellular Ca2+ mobilization (FLIPR) in MT2-CHO cells co-expressing 16z25; type: cell-based; set-up: expressed in transfected cells; settings: for EC50 / Ca2+ mobilization activity at MT2 (in words) / MT2 EC50, Ca2+ mobilization: MT2-CHO cells, FLIPR; for Emax: MT2, percentage of melatonin (MT)-mediated stimulation of Ca2+ signal, read-out: MT2 %Resp ±SEM, Ca2+ signal; for shift of melatonin dose-response curve in FLIPR assay, MT2-CHO (competitive antagonism): preincubation with 10 µM or 1 µM of 7e or 7f
Experimental: as §1

[6] = molecular target: T2, MT1; test: Inhibition of forskolin-stimulated cAMP accumulation in MT1-CHO cells; type: cell-based; set-up: expressed in transfected cells
Experimental: (§2) Both MT1 and MT2 are classified as Gi-coupled receptors with their activation leading to inhibition of intracellular cAMP production. The ability of the tested compounds to activate the endogenously expressed Gi-mediated inhibition of cAMP production was therefore examined.
(§3) All the responses were expressed as the percentage of that induced by forskolin alone (as 100%).
(§4) 2×10^5 cells were seeded in each well of 12-well plates and grown for overnight. Each well was labeled with 1 ml of [^3H]adenine (1 µCi/ml) in F-12K medium containing 1% FBS (vol/vol) for overnight. The labeling media were then replaced by 1 ml of 20 mM HEPES-buffered F-12K containing 1 mM isobutylmethylxanthine (IBMX) and the tested compounds at desired concentrations, and incubated at 37°C for 30 min. The reaction was stopped by aspiration and adding 1 ml prechilled 5% trichloroacetic acid (w/v) with 1 mM ATP, and stored at 4°C for 30 min. [^3H]cAMP was extracted from the pool of labeled adenosine nucleotides by sequential ion-exchange chromatography as previously described. The radioactivity of labeled cAMP and total labeled nucleotide fractions separated by chromatography were estimated by scintillation counting. Inhibition curves were constructed by non-linear regression using GraphPad Prism 3.

[7] = molecular target: T1, MT2; test: Inhibition of forskolin-stimulated cAMP accumulation in MT2-CHO cells; type: cell-based; set-up: expressed in transfected cells; settings: for IC50: MT2-CHO cells, 50 µM forskolin
Experimental: as §2, §3, §4

[8] = molecular target: T2, MT1; test: Immunodetection of ERK phosphorylation in MT1-CHO cells; type: cell-based; set-up: expressed in transfected cells; settings: for concentration inducing weak ERK phosphorylation in MT1-CHO cells: immunoblot
Experimental: (§5) CHO cells expressing MT1 or MT2 were serum-starved before treating with the indicated concentrations of melatonin or individual tested compounds. Resolved proteins were electrotransferred for immunodetection using phosphorylated ERK-specific antibody.
(§6) (A) CHO cells expressing MT1 or MT2 were treated with the indicated concentrations of 7e or luzindole in the absence or presence of a fixed concentration of melatonin (MLT) (for both MT1 or MT2) or 7b (for MT2 only). Other experimental details were as to the legend of Figure 5. Data shown were representative blots of three separate trials. (B) CHO cells expressing MT2 were treated with increasing concentrations (1 ρM – 1 µM) of melatonin in the absence or presence of 10 µM or 1 µM of 7e or 7f. Other experimental details were as to the legend of Figure 4.
(§7) 2×10^5 cells were seeded into each well of 12-well plates for overnight before serum withdrawal for 4 h to reduce the basal ERK phosphorylation. Tested compounds were diluted in serum-free culture medium at desired concentrations and treated the cells for 5 min. Reactions was stopped by aspiration and then adding 150 µl of lysis buffer with protease inhibitors (50 mM Tris–HCl, pH 7.5, 100 mM NaCl, 5 mM EDTA, 40 mM NaP2O7, 1% Triton X-100, 1 mM dithiothreitol, 200 µM Na3VO4, 100 µM phenylmethylsulfonyl fluoride, 2 µg/ml leupeptin, 4 µg/ml aprotinin, and 0.7 µg/ml pepstain). Cells were allowed to lyse for 30 min at 4°C with agitation, and the collected total cell lysates were cleared by centrifugation. Protein samples were resolved in SDS-PAGE and transferred to nitrocellulose membranes using iBlot system (Invitrogen). Phosphorylated ERK was detected using specific antibodies as described previously. Chemiluminescence signals on the blots were detected on X-ray films.

[9] = molecular target: T2, MT1; settings: 1 nM [3H]melatonin, intact CHO cells, 4°C 60 min; mean ± SEM of 3–5 trials; NSB = no specific binding for up to 30 µM
Experimental: as §8, §9, §10

[10] = molecular target: T1, MT2; test: Immunodetection of ERK phosphorylation in MT2-CHO cells; type: cell-based; set-up: expressed in transfected cells; settings: for suppression of melatonin-induced ERK phosphorylation in MT2-CHO cells (antagonism): 1 nM melatonin (MLT), 7e and 7f at 10 µM; for suppression of 7b-induced ERK phosphorylation in MT2-CHO cells (antagonism): agonist 7b 100 nM, 7e at 10 µM; for ERK phosphorylation in MT2-CHO cells (in words): immunoblot
Experimental: as §5, §6, §7

[11] = calculated from mean pEC50, NSR = no significant response for up to 30 µM, read-out: MT2 EC50, Ca2+ mobilization
[12] = calculated from mean pEC50, NSR = no significant response for up to 30 µM
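Wherever MT1 pIC50±SEM is given: competitive radioligand displacement on intact CHO cells stably co-expressing human MT1 together with the G protein chimera 16z25, using rising concentrations of each compound.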
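Wherever Selectivity, ratio Ki(MT1)/Ki(MT2) is given: competition binding on intact CHO cells stably co-expressing human MT2 with G protein chimera 16z25, displacing [3H]melatonin at 4°C over 60 min, melatonin run as reference.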
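Wherever displacement of pre-incubated [3H]melatonin at MT2 (in words) is given: competition binding on intact CHO cells stably co-expressing human MT2 with G protein chimera 16z25, displacing [3H]melatonin at 4°C over 60 min, melatonin run as reference.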

T2 sequence (P48039 whole entry): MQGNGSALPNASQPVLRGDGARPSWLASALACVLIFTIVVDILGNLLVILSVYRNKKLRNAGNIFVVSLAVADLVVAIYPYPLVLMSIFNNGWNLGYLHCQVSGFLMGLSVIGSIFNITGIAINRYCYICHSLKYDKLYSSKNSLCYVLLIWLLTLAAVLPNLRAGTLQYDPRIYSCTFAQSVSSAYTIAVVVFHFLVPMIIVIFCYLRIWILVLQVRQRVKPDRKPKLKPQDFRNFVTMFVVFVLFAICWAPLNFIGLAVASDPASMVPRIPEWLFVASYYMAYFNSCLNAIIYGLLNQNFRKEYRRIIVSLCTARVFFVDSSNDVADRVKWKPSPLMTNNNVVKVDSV

| SMILES | melting point | Selectivity, ratio Ki(MT1)/Ki(MT2) [1] | IC50 [2] | Ki [2] | Emax [2] | IC50 [3] | Ki [3] | Emax [3] | MT1 pIC50±SEM [9] | Ca2+ mobilization activity at MT2 (in words) [5] | MT2 EC50, Ca2+ mobilization [5, 12] | suppression of melatonin-induced ERK phosphorylation in MT2-CHO cells (antagonism) [10] | other results |
| --- | --- | --- | --- | --- | --- | --- | --- | --- | --- | --- | --- | --- | --- |
| COc1cc(COc2cc3ccn(C)c(=O)c3cc2OC)cc(OC)c1 [7c, 6-(3,5-Dimethoxy-benzyloxy)-7-methoxy-2-methylisoquinolin-1(2H)-one] |  | 37.6 | 57500 nM | 13100 nM | 41 ± 9% | 1170 nM | 350 nM | 73 ± 9% |  |  |  |  | EC50 [4]: 266 nM; MT1 %Resp ±SEM, Ca2+ signal [4]: 65±10%; EC50 [5, 11]: 21 nM; Emax [5]: 90 ± 16%; concentration to induce exclusive MT2 activation (Ca2+ signal) ([5]; from concentration response curves, Figure 4): < 10 nM; fold less potent than 7b (EC50, Ca2+ signal, MT2) ([5]; relative to 7b, MT2-CHO): ~70 fold; MT1 IC50, inhibition of cAMP production ([6]; MT1-CHO cells, 50 µM forskolin, calculated from mean pIC50, NSR = no significant response for up to 10 µM): NSR ^b; IC50 ([7]; calculated from mean pIC50, read-out: MT2 IC50, inhibition of cAMP production): 2460 nM; MT2 %Inhmax ±SEM, extrapolated ([7]; extrapolated %Inhmax from non-linear regression, MT2-CHO): 72±3 ^c %; concentration inducing weak ERK phosphorylation in MT1-CHO cells [8]: > 1 µM |
| COc1ccc(COc2cc3ccn(C)c(=O)c3cc2OC)cc1 [7e, 7-Methoxy-6-(4-methoxy-benzyloxy)-2-methylisoquinolin-1(2H)-one] | 170 to 172 °C |  |  |  |  | 1120 nM | 334 nM | 47 ± 5% | NSB | null response | NSR | reduced to almost the basal level | shift of melatonin dose-response curve in FLIPR assay, MT2-CHO (competitive antagonism) [5]: parallel right shift; suppression of 7b-induced ERK phosphorylation in MT2-CHO cells (antagonism) [10]: significantly suppressed |
| COc1cc2c(=O)n(C)ccc2cc1OCc1ccc(C)cc1 [7f, 7-Methoxy-2-methyl-6-(4-methyl-benzyloxy)-isoquinolin-1(2H)-one] | 120 to 122 °C | 6.13 | 8910 nM | 2040 nM | 38 ± 10% | 1100 nM | 333 nM | 70 ± 6% |  |  | NSR | partial inhibition | shift of melatonin dose-response curve in FLIPR assay, MT2-CHO (competitive antagonism) [5]: parallel right shift |
| CC(=O)NCCc1c(Cc2ccccc2)[nH]c2ccccc12 [luzindole, reference compound] |  |  |  | 102 nM |  |  | 2.9 nM |  |  | weak but significant MT2-selective agonistic activity |  | blocked | suppression of melatonin-induced ERK phosphorylation in MT1-CHO cells (antagonism) ([8]; 1 nM melatonin (MLT)): blocked; effect on basal ERK phosphorylation in MT1-CHO cells ([8]; at 1 µM): completely eliminated basal ERK phosphorylation; suppression of 7b-induced ERK phosphorylation in MT2-CHO cells (antagonism) [10]: blocked; effect on basal ERK phosphorylation in MT2-CHO cells ([10]; luzindole alone): constantly enhanced |

Continued, in another order:

| melting point | Selectivity, ratio Ki(MT1)/Ki(MT2) [1] | IC50 [2] | Ki [2] | Emax [2] | IC50 [3] | Ki [3] | Emax [3] | MT1 pIC50±SEM [9] | Ca2+ mobilization activity at MT2 (in words) [5] | MT2 EC50, Ca2+ mobilization [5, 12] | suppression of melatonin-induced ERK phosphorylation in MT2-CHO cells (antagonism) [10] | SMILES | other results |
| --- | --- | --- | --- | --- | --- | --- | --- | --- | --- | --- | --- | --- | --- |
| 85 to 87 °C | 139 | 16200 nM | 3700 nM | 90 ± 8% | 89.1 nM | 26.6 nM | 92 ± 4% |  |  |  |  | COc1cccc(COc2cc3ccn(C)c(=O)c3cc2OC)c1 [7b, 7-Methoxy-6-(3-methoxy-benzyloxy)-2-methylisoquinolin-1(2H)-one] | displacement of pre-incubated [3H]melatonin at MT2 (in words) ([1]; competitive binding, intact CHO cells): completely displaced; EC50 [4]: 31.1 nM; MT1 %Resp ±SEM, Ca2+ signal [4]: 63±7%; EC50 [5, 11]: 0.3 nM; EC50 ([5]; mean ± SEM of 3–5 trials, read-out: MT2 pEC50 ±SEM, Ca2+ mobilization (converted)): 0.288 nM; Emax [5]: 92 ± 11%; inhibition of cAMP levels in MT1-CHO cells (in words) ([6]; forskolin-stimulated): observable inhibition; MT1 %Inhmax ±SEM ([6]; maximal percentage inhibition of the forskolin-elevated cAMP level, MT1-CHO): 69±8%; IC50 ([6]; read-out: MT1 IC50, inhibition of cAMP production): 1200 nM; IC50 ([7]; mean ± SEM of 2 trials, read-out: MT2 pIC50 ±SEM, inhibition of cAMP production (converted)): 63.1 nM; MT2 %Inhmax ±SEM ([7]; maximal percentage inhibition of the forskolin-elevated cAMP level, MT2-CHO): 70±3%; concentration inducing weak ERK phosphorylation in MT1-CHO cells [8]: > 1 µM |
| 132 to 134 °C |  |  |  |  | 14800 nM | 4460 nM | 78 ± 8% | NSB | basically inactive | NSR |  | COc1cc2ccn(C)c(=O)c2cc1OCc1ccccc1 [14a, 7-Benzyloxy-6-methoxy-2-methylisoquinolin-1(2H)-one] | ERK phosphorylation in MT2-CHO cells (in words) [10]: essentially inactive |
| 150 to 152 °C |  |  |  |  | 13800 nM | 4150 nM | 73 ± 10% | NSB | basically inactive | NSR |  | COc1cc2ccn(C)c(=O)c2cc1OCc1ccc(C)cc1 [14d, 6-Methoxy-2-methyl-7-(4-methyl-benzyloxy)-isoquinolin-1(2H)-one] | ERK phosphorylation in MT2-CHO cells (in words) [10]: essentially inactive |
